Laboratory results from patent publication US11955208B2, “Computational systems and methods for improving the accuracy of drug toxicity predictions” (Cornell University, priority 2016, dated 2024).

Legend:
[1] = in vivo; cited from earlier work
[2] = system: nuclear hormone receptors, the kinome, or other drug targets of FDA-approved cancer therapies
other GPCRs = experiment: GPCR profiling, heterologous reporter assay for arrestin recruitment; assay type: cell-based; conditions: under the evaluated conditions
Protocol: (§1) To test the target prediction, in vitro profiling of GPCR activity using a hetereologous reporter assay for arrestin recruitment, a hallmark of GPCR activation was performed.

[3] = system: D1-like (DRD1/5) subfamily of dopamine receptors; experiment: as above; assay type: cell-based
Protocol: as §1

DRD2L [4] = target: T1, DRD2L (Homo sapiens, UniProt P14416); experiment: antagonism of arrestin recruitment to DRD2L, Gaddam/Schild EC50 shift analysis; assay type: cell-based; set-up: expressed in transfected cells; conditions: dopamine completely reversed dose-dependent antagonism of up to 100 uM ONC201
Protocol: as §1

[5] = system: short and long isoforms of DRD2; conditions: arrestin recruitment
Protocol: as §1

[6] = system: D2-like (DRD2/3/4) subfamily of dopamine receptors; conditions: arrestin recruitment
Protocol: as §1

DRD2L [7] = target: T1, DRD2L
breast cancer patients = conditions: recent clinical trials; cited from earlier work

T1 sequence (P14416 whole entry): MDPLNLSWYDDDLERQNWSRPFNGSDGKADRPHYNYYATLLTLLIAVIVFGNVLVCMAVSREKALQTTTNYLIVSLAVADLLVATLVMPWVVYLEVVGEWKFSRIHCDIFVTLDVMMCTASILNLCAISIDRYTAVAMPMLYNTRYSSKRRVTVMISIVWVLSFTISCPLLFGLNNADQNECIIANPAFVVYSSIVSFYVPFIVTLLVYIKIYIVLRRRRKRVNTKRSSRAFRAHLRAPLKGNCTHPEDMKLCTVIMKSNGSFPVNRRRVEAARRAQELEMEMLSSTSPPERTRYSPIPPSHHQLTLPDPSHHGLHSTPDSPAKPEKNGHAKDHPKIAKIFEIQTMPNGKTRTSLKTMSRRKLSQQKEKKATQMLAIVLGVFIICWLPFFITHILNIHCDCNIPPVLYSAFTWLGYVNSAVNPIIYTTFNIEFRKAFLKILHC

## CN(CCOc1ccc(CC2SC(=O)NC2=O)cc1)c1ccccn1 (centres unmarked) [rosiglitazone]
[1]
  associated adverse event: elevated risk of heart attack

## Cc1ccccc1CN1C(=O)C2=C(CCN(Cc3ccccc3)C2)N2CCN=C12 [ONC201]
[2]
  interactions with nuclear hormone receptors, kinome, other cancer drug targets: no significant interactions
Other GPCRs
  antagonism of other GPCRs: no observed antagonism
[3]
  antagonism of D1-like dopamine receptors: not D1-like
DRD2L [4]
  mode of antagonism of DRD2L: direct, competitive antagonism
[5]
  antagonism of DRD2 short and long isoforms: antagonized
[6]
  antagonism of D2-like dopamine receptors: selectively antagonizes
DRD2L [7]
  cAMP modulation in response to compound: Confirmatory results

## CC(C)C[C@H](NC(=O)[C@H](Cc1ccccc1)NC(=O)c1cnccn1)B(O)O [bortezomib]
[1]
  associated adverse event: peripheral neuropathy

## CC(=O)O[C@@]12CO[C@@H]1C[C@H](O)[C@@]1(C)C(=O)[C@H](O)C3=C(C)[C@@H](OC(=O)[C@H](O)[C@@H](NC(=O)OC(C)(C)C)c4ccccc4)C[C@@](O)([C@@H](OC(=O)c4ccccc4)[C@H]21)C3(C)C [docetaxel]
[1]
  associated adverse event: neutropenia

## C=C1C[C@@H]2CC[C@@]34C[C@H]5O[C@H]6[C@@H](O3)[C@H]3O[C@H](CC[C@@H]3O[C@H]6[C@H]5O4)CC(=O)C[C@@H]3[C@@H](OC)[C@@H](C[C@H](O)CN)O[C@H]3C[C@H]3O[C@@H](CC[C@@H]1O2)C[C@@H](C)C3=C [Eribulin]
Breast cancer patients
  breast cancer patients showing any detectable response after treatment: < 50%
